{"source": "patent US5958882A", "about": "“Compounds that inhibit T cell proliferation and methods using the same” (Thomas Jefferson University, priority 1996, dated 1999)", "key": {"[1]": {"test_system": "MLR in a BALB/c (H-2D) anti C3H (H-2K) alloresponse", "test": "MLR of Example 10 (Table II)", "format": "cell-based, mouse", "settings": "MLR without peptide 66000 CPM", "description": "(§1) Mice were sacrificed and spleens aseptically removed. Cell suspensions were made by gently pressing spleens through nylon mesh, washing cells with RPMI 1640 and hypotonic lysis of red blood cells. After 3 washes in RPMI 1640, cells were resuspended in complete medium (RPMI 1640, 10% heat inactivated FCS, 2 mM L-glutamine, penicillin/streptomycin, and […]). 1×10^5 responder cells (BALB/c spleen cells) were incubated with 1×10^5 stimulator cells (C3H spleen cells, 2000 rad irradiated) in triplicate in round bottom 96 well plates (final volume 200 μl), and incubated with the indicated concentration of peptide (0.01, 0.1, 1, 10, 100 and 1000 μM peptide) for 5 days at 37° C., 5% CO2. 1 μCi/WELL OF [^3 H] TdR was added 12 hours before thymidine incorporation was measured. Labelled DNA from cells was harvested onto glass fiber filters with a PHD cell harvester (Cambridge, Mass.), and CPM determined by liquid scintillation counting with the use of a 1209 Rackbeta (LKB, Piscataway, N.J.).\nA MLR was performed as described in Example 6. h84-101 C--C, SEQ ID NO:4, SEQ ID NO:5, SEQ ID NO:6, SEQ ID NO:11, (SEQ ID NO:4+SEQ ID NO:5), and a monoclonal antibody directed against CD4 (OKT4A) were tested for their effect on MLR in a BALB/c (H-2D) anti C3H (H-2K) alloresponse. MLR was also performed without the addition of peptide or antibody (MLR). Each peptide individually has inhibitory activity to a moderate level (30-50%), but when two analogs are added together (SEQ ID NO:4 and SEQ ID NO:5) the effect was synergistic and the inhibition approached 100%, as compared to a monoclonal antibody directed against CD4 (OKT4A)."}, "[2]": {"test_system": "human T cells stimulated with PHA", "test": "Phytohemagglutinin T cell proliferation assay", "format": "cell-based", "description": "The mitogen phytohemagglutinin (PHA) activates T cells by cross-linking CD3/TCR complexes. Human blood is collected from volunteer donors. Lymphocytes are purified by separation over a Ficoll gradient. T cells are separated by rosetting to sheep red blood cells. The enriched T cell population is stimulated with 5 μg/ml phytohemagglutinin (PHA). FIG. 7 illustrates the ability of the D2 peptide analogs to inhibit T cell proliferation in response to PHA stimulation. […] Results are illustrated in FIG. 7."}, "[3]": {"test_system": "BALB/c spleen cells (responder) with irradiated C3H spleen cells (stimulator)", "test": "Mixed lymphocyte reaction (MLR), BALB/c anti-C3H alloresponse", "format": "cell-based, mouse", "description": "The mixed lymphocyte reaction (MLR) is the response of one individual's T lymphocytes to those of a major histocompatibility complex (MHC) mismatched donor. CD4+ T cells recognize the foreign MHC proteins and proliferate in response to this, in a manner highly dependent on the CD4 molecule.\nas §1\nA MLR was performed as described in Example 6. Cells were incubated with a 0.01, 0.1, 1, 10, 100, and 1000 μM of each of the following peptides: SEQ ID NO:1 (mPGPtide), and control peptides, SEQ ID NO:3 (hPGPtides) and SEQ ID NO:13 (mCDR3 scramble). […] Activity was approximately 85000 CPM after the addition of 0.01 μM SEQ ID NO:1, and approximately 30000 CPM after the addition of 200 μM SEQ ID NO:1. […] Activity was approximately 75000 CPM at 0.01 μM SEQ ID NO:3, and approximately 60000 CPM after the addition of 200 μM SEQ ID NO:3. Similarly, activity was approximately 80000 CPM after the addition of 0.01 μM of SEQ ID NO:13, and approximately 90000 CPM after the addition of 200 μM SEQ ID NO:13. […]"}, "[4]": {"test_system": "human mixed lymphocyte reaction", "test": "Human mixed lymphocyte reaction (Example 8, FIG. 3)", "format": "cell-based"}, "[5]": {"test_system": "EAE in SJL mice", "test": "Experimental allergic encephalomyelitis (EAE) model", "format": "in vivo, mouse", "settings": "for maximum EAE incidence: SJL mice, untreated 83%; for maximum mean EAE severity grade (0-5): untreated 2.17; for average time of initial onset: untreated day 15.6", "description": "Experimental allergic encephalomyelitis (EAE) is considered to be the best experimental animal model for the study of multiple sclerosis since it shares many of the same clinical and histopathological features as the human disorder. EAE can be elicited in several animal species, including mice, by inoculation of crude CNS tissue extracts, purified MBP, proteolipids, or synthetic polypeptides composed of the active portions of these antigenic molecules. Antigen is administered subcutaneously in conjunction with complete Freund's adjuvant (CFA) and, in our modification of the standard procedure, is given twice on days 0 and 7 for induction (Korngold et al., (1986) Immunogenetics 24:309-315, which is incorporated herein by reference). Symptoms of disease usually occur between 15-19 days after initial immunization and may last for up to 25 days. Mice usually recover from the acute EAE attack, but may relapse at a later time, or are susceptible to an enhanced disease episode upon further immunization.\nSJL mice, which are highly susceptible to the induction of acute EAE, were immunized as described in Korngold et al., (1986) Immunogenetics 24:309-315. Accordingly, 1 mg of crude SJL mouse spinal cord homogenate (MSCH) was diluted in 0.15 ml phosphate buffered solution and emulsified in an equal volume of CFA. 0.15 ml of the inoculum was injected subcutaneously in each of two sites on the posterior flank of mice anesthetized with metaphane. A secondary inoculation, similar to the primary, was administered at 7 days. Mice were evaluated daily for symptoms of disease and graded 0-5: 0=no clinical expression of disease; 1=flaccid tail with or without mild hind leg weakness; 2=flaccid tail with moderate hind leg weakness; 3=severe hind leg weakness and mild forelimb weakness; 4=total hind leg paralysis associated with moderate forelimb weakness; and 5=quadriplegia or a moribund state.\nThe mice were divided into four groups: the first left untreated; the second injected on days 2 and 8 intravenously 10 (i.v.) with 0.5 mg of the D amino acid CDR3-like peptide #1; the third injected on day 12 i.v. with the D amino acid CDR3-like peptide #1; and the fourth injected i.v. on days 2 and 8 with a control D-polypeptide of similar length to the D amino acid CDR3-like peptide #1.\nWith the same experiment described above, mice from the different treatment groups were scored for the clinical expression of disease. […] The ifferences were statistically significant, by Tukey multiple analysis of variance, between: the untreated and the D amino acid CDR3-like peptide #1 day 2,8 treated group on days 16-19 and 24 […]; the untreated and the D amino acid CDR3-like peptide #1 day 12 treated group on days 16-24 (0.01≤p≤0.05); and the control peptide day 2,8 group and the D amino acid CDR3-like peptide #1 day 2,8 treated group on day 17 (p=0.02).\nTo investigate whether D amino acid CDR3-like peptide #1 could have an effect upon the development of EAE once symptoms have already appeared and therefore corresponding to the effector phase of the disease, 30 SJL mice were inoculated on days 0 and 7 with MSCH and CFA, as described above. 12 mice that had reached a grade 1 level of clinical EAE expression by day 16 were selected and randomly grouped to be left untreated or treated with 0.5 mg i.v. of D amino acid CDR3-like peptide #1. […] At day 18, the difference between the untreated and treated groups was statistically significant (p=0.003)."}, "[6]": {"test_system": "lethal GVHD in irradiated DBA/2 mice given B10.D2 CD4+ T cells", "test": "GVHD mediated by CD4+ T cells", "format": "in vivo, mouse", "settings": "0.5 mg i.v. on days 0 and 3", "description": "The transplantation of B10.D2 CD4+ T cells along with T-cell-depleted bone marrow has been shown previously to induce a lethal GVHD response in irradiated (850 cGy) DBA/2 mice (Korngold and Sprent, (1987) J. Exp. Med. 165:1552-1564)."}}, "note": "Bridges are numbered along the chain shown (N, C = ends). Where no end group is shown, it is not given here. [ ]: non-standard residue; d: D form.", "data": [{"substance": "C*RSPRGKNC [SEQ ID NO:6]", "values": [{"measurement": "CPM", "setting": "[1]", "value": 50000, "unit": "CPM"}, {"measurement": "CPM after PHA stimulation", "setting": "[2]; 0.25 μM peptide, 5 μg/ml PHA", "value": 48000, "unit": "CPM"}, {"measurement": "CPM after PHA stimulation", "setting": "[2]; 250 μg peptide", "value": 39500, "unit": "CPM"}]}, {"substance": "CLLVFEVEDQKEEVQGLC [SEQ ID NO:13]", "values": [{"measurement": "MLR activity (CPM)", "setting": "[3]; 0.01 μM peptide", "value": "approximately 80000 CPM"}, {"measurement": "MLR activity (CPM)", "setting": "[3]; 200 μM peptide", "value": "approximately 90000 CPM"}, {"measurement": "inhibitory activity on MLR", "setting": "[3]; BALB/c anti-C3H MLR, 5 days, [3H]TdR incorporation", "value": "little or no activity"}, {"measurement": "% CPM of the positive control", "setting": "[4]; 500 μM peptide", "value": "about 100%"}, {"measurement": "inhibition of the proliferative response of the human MLR", "setting": "[4]; 0.1-1000 μM", "value": "little or no inhibition"}]}, {"substance": "CPGPEEKRNELEC ([dC][dP]G[dP][dE][dE][dK][dR][dN][dE][dL][dE][dC]; disulfide 1-13 (inferred)) [D amino acid CDR3-like peptide #1]", "values": [{"measurement": "EAE severity grade reached, effector phase", "setting": "[5]; 0.5 mg i.v. at grade 1 on day 16, value on day 19, untreated 2.4 by day 18", "value": 1.17}, {"measurement": "maximum EAE incidence", "setting": "[5]; i.v. on day 12", "value": 31, "unit": "%"}, {"measurement": "maximum EAE incidence", "setting": "[5]; i.v. on days 2 and 8 (0.5 mg)", "value": 36, "unit": "%"}, {"measurement": "days of peak EAE severity", "setting": "[5]; groups treated on days 2,8 or day 12", "value": "19 to 21", "unit": "days"}, {"measurement": "effect on the course of disease progression (EAE)", "setting": "[5]; murine EAE model", "value": "dramatically intervened in the progression"}, {"measurement": "maximum mean EAE severity grade (0-5)", "setting": "[5]; treated on day 12", "value": 0.75}, {"measurement": "average time of initial onset", "setting": "[5]; treated on day 12", "value": 17.0, "unit": "days"}, {"measurement": "maximum mean EAE severity grade (0-5)", "setting": "[5]; treated on days 2,8", "value": 0.77}, {"measurement": "average time of initial onset", "setting": "[5]; treated on days 2,8", "value": 17.1, "unit": "days"}, {"measurement": "incidence of survival", "setting": "[6]; untreated 83% lethal GVHD", "value": 57, "unit": "%"}, {"measurement": "median survival time", "setting": "[6]; untreated 15 days, experiment ended at 65 days", "value": "greater than 65 days"}]}, {"substance": "LESPPGSSPSV [SEQ ID NO:5]", "values": [{"measurement": "CPM", "setting": "[1]", "value": 48000, "unit": "CPM"}, {"measurement": "CPM after PHA stimulation", "setting": "[2]; 0.25 μM peptide, 5 μg/ml PHA", "value": 53500, "unit": "CPM"}, {"measurement": "CPM after PHA stimulation", "setting": "[2]; 250 μg peptide", "value": 39500, "unit": "CPM"}]}, {"substance": "TCTNLQNQKKVECK [SEQ ID NO:4]", "values": [{"measurement": "CPM", "setting": "[1]", "value": 42000, "unit": "CPM"}, {"measurement": "CPM after PHA stimulation", "setting": "[2]; 0.25 μM peptide, 5 μg/ml PHA", "value": 47000, "unit": "CPM"}, {"measurement": "CPM after PHA stimulation", "setting": "[2]; 250 μg peptide", "value": 38000, "unit": "CPM"}]}]}
